One experiment concerns the target c-fms (Homo sapiens (Human), UniProt P07333). Kind of experiment: Autophosphorylation fluorescence polarization competition immunoassay for c-fms inhibition. It is filed as biochemical. The conditions noted are these: averages of three independent measurements; table head says 1 nM c-fms, method says 10 nM c-fms, 1 mM ATP; read-out: 1 nM c-fms; peptide Pi assay IC-50. As to the method: Fluorescence Polarization Competition Immunoassay
The assay buffer used was 100 mM 4-(2-hydroxyethyl)piperazine 1-ethanesulfonic acid (HEPES), pH 7.5, 1 mM 1,4-dithio-DL-threitol (DTT), 0.01% (v/v) Tween-20. Compounds were diluted in assay buffer containing 4% dimethylsulfoxide (DMSO) just prior to the assay. To each well, 5 μL of compound were added followed by the addition of 3 μL of a mix containing 33 nM c-fms (Johnson & Johnson PRD) and 16.7 mM MgCl2 (Sigma) in assay buffer. The kinase reaction was initiated by adding 2 μL of 5 mM ATP (Sigma) in assay buffer. […] Control reactions were ran in each plate: in positive and negative control wells, assay buffer (made 4% in DMSO) was substituted for the compound; in addition, positive control wells received 1.2 μL of 50 mM ethylenediaminetetraaceticacid (EDTA).
The plates were incubated at room temperature for 45 min. At the end of the incubation, the reaction was quenched with 1.2 μL of 50 mM EDTA (EDTA was not added to the positive control wells at this point; see above). Following a 5-min incubation, each well received 10 μL of a 1:1:3 mixture of anti-phosphotyrosine antibody, 10×, PTK green tracer, 10× (vortexed), FP dilution buffer, respectively (all from PanVera, cat. #P2837). The plate was covered, incubated for 30 min at room temperature and the fluorescence polarization was read on the Analyst. The instrument settings were: 485 nm excitation filter; 530 nm emission filter; Z height: middle of well; G factor: 0.93. […] The reported IC50 values are averages of three independent measurements.
In general terms: Polarisation of emitted light reports the rotation of a fluorescent probe.

The test system of experiment [1] is mouse bone-marrow derived macrophages (BMDM). Kind of experiment: CSF-1-driven mouse bone-marrow derived macrophages proliferation assay (BrDU incorporation). The class given is cell-based. To be noted: Mus musculus, BMDM, 30 hrs culture, read-out: mCSF driven proliferation BMDM (Mouse) IC-50. As to the method:
CSF-1-Driven Mouse Bone-Marrow Derived Macrophages Assay
Macrophages are derived by culturing mouse bone marrow in alpha-MEM supplemented with 10% FCS and 50 ng/ml recombinant mouse CSF-1 in bacteriologic dishes. On the sixth day, macrophages are detached from dishes, washed, and resuspended to 0.05 million cells/ml in alpha-MEM containing 10% FCS. One hundred ul of cell suspension are distributed per well into 96 well culture plates. Wells are further supplemented with the addition of 50 ul media containing 15 ng/ml CSF-1, 3 uM Indomethacin, and 3× of a dilution series of test compounds. The cells are cultured for 30 hrs at 37 degrees and 5% CO2. During the final six hours, cultures are supplemented with an additional 30 ul of media containing a 1:500 dilution of bromodeoxyuridine (BrDU). At the end of the culture period, the plates are spun at 1000 RPM for 1 minute and 130 ul of media is removed with a pipet and replaced with 150 ul of fixative solution for 1 hour @ room temperature. The fixative is then dispelled from the plates and the plates allowed to air dry. Incorporation of BrDU into the fixed, dried cells is quantified using a specific ELISA.

Where only a bound is given, the exact number is not on record here.

In patent publication US9394289B2, “Inhibitors of c-fms kinase” (Janssen Pharmaceutica NV, priority 2006, dated 2016) one finds IC50 data, which are given here for three compounds.

Chain of c-fms (P07333 20-972): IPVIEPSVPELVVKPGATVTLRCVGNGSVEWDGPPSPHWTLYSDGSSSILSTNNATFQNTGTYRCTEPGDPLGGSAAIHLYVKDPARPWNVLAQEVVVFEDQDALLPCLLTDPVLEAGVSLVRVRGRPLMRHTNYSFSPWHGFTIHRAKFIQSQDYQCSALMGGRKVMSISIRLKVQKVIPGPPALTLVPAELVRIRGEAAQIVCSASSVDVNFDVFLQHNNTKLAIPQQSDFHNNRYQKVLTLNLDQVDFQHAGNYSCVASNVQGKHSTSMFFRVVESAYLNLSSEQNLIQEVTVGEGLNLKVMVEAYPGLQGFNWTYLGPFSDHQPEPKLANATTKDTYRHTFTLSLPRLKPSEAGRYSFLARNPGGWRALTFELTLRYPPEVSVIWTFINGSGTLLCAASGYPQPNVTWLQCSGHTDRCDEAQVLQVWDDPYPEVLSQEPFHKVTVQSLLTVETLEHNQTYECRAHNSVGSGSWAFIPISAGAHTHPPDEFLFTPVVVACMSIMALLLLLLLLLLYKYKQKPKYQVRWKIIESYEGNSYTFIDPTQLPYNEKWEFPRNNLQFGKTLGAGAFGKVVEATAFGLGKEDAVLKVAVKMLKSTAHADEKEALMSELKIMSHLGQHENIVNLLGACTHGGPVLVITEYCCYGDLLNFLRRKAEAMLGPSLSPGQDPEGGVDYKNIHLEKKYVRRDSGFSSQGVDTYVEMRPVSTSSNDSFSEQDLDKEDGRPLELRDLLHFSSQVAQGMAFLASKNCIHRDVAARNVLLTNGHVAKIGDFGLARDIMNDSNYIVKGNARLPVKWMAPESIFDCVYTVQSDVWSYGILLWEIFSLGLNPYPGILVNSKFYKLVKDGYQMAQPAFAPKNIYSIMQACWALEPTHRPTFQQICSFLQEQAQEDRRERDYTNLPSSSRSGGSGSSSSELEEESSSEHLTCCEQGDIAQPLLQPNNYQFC

Turning to `CC1(C)CC=C(c2cc(C3(O)CC4(C)CCC(C)(C3)O4)ccc2NC(=O)c2nc(C#N)c[nH]2)CC1` (stereo not drawn) [Example 93, 4-Cyano-1H-imidazole-2-carboxylic acid [2-(4,4-dimethyl-cyclohex-1-enyl)-4-(3-hydroxy-1,5-dimethyl-8-oxa-bicyclo[3.2.1]oct-3-yl)-phenyl]-amide], the IC50 at c-fms came to 2.9 nM; in experiment [1], 8.9 nM.
The corresponding values for `CC1(C)CC=C(c2cc(C3(C#N)C[C@]4(C)CC[C@](C)(C3)O4)ccc2NC(=O)c2nc(C#N)c[nH]2)CC1` (stereo partly drawn) [Example 94, 4-Cyano-1H-imidazole-2-carboxylic acid [4-(3-cyano-1,5-dimethyl-8-oxa-bicyclo[3.2.1]oct-3-yl)-2-(4,4-dimethyl-cyclohex-1-enyl)-phenyl]-amide] are 82 nM and more than 100 nM.
For the compound `CC1(C)CC=C(c2cc(C3(C#N)CC(C)(C)OC(C)(C)C3)ccc2NC(=O)c2nc(C#N)c[nH]2)CC1` [Example 95, 4-Cyano-1H-imidazole-2-carboxylic acid [4-(4-cyano-2,2,6,6-tetramethyl-tetrahydro-pyran-4-yl)-2-(4,4-dimethyl-cyclohex-1-enyl)-phenyl]-amide], the IC50 at c-fms was 26 nM; in experiment [1] it was 29 nM.
